Test results reported in PubChem BioAssay (NCI).
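Where inhibition never reached the appropriate level, the endpoint shown equals the highest concentration tested. Otherwise, values were interpolated linearly from a five-concentration, 48-hour dose response in 96-well plates. Definition used: TGI = concentration required for complete inhibition of growth.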

Assays:
Experiment in all cases: NCI tumour cell line growth inhibition, 48 h
SF-295 CNS = system: SF-295 CNS
SK-MEL-2 melanoma = system: SK-MEL-2 melanoma
M14 melanoma = system: M14 melanoma
NCI/ADR-RES ovarian = system: NCI/ADR-RES ovarian
BT-549 breast = system: BT-549 breast
DU-145 prostate = system: DU-145 prostate
CAKI-1 renal = system: CAKI-1 renal
PC-3 prostate = system: PC-3 prostate
TK-10 renal = system: TK-10 renal
UACC-257 melanoma = system: UACC-257 melanoma
MCF7 breast = system: MCF7 breast
KM12 colon = system: KM12 colon
U251 CNS = system: U251 CNS
OVCAR-5 ovarian = system: OVCAR-5 ovarian
NCI-H226 lung = system: NCI-H226 lung
SW-620 colon = system: SW-620 colon
ACHN renal = system: ACHN renal
SN12C renal = system: SN12C renal
HS 578T breast = system: HS 578T breast
IGROV1 ovarian = system: IGROV1 ovarian
HOP-62 NSCLC = system: HOP-62 NSCLC
SF-268 CNS = system: SF-268 CNS
T-47D breast = system: T-47D breast
UO-31 renal = system: UO-31 renal
MDA-MB-435 = system: MDA-MB-435
SNB-19 CNS = system: SNB-19 CNS
MOLT-4 leukemia = system: MOLT-4 leukemia
EKVX NSCLC = system: EKVX NSCLC
OVCAR-8 ovarian = system: OVCAR-8 ovarian
HCC-2998 colon = system: HCC-2998 colon
SR leukemia = system: SR leukemia
SK-MEL-28 melanoma = system: SK-MEL-28 melanoma
HCT-15 colon = system: HCT-15 colon
SK-OV-3 ovarian = system: SK-OV-3 ovarian
K-562 leukemia = system: K-562 leukemia
786-0 renal = system: 786-0 renal
SF-539 CNS = system: SF-539 CNS
HL-60(TB) leukemia = system: HL-60(TB) leukemia
HT29 colon = system: HT29 colon
LOX IMVI melanoma = system: LOX IMVI melanoma
HCT-116 colon = system: HCT-116 colon
SK-MEL-5 melanoma = system: SK-MEL-5 melanoma
A498 renal = system: A498 renal
UACC-62 melanoma = system: UACC-62 melanoma
RPMI-8226 leukemia = system: RPMI-8226 leukemia
NCI-H460 lung = system: NCI-H460 lung
HOP-92 NSCLC = system: HOP-92 NSCLC
CCRF-CEM leukemia = system: CCRF-CEM leukemia
COLO 205 colon = system: COLO 205 colon
OVCAR-4 ovarian = system: OVCAR-4 ovarian
OVCAR-3 ovarian = system: OVCAR-3 ovarian
NCI-H23 lung = system: NCI-H23 lung
MDA-N = system: MDA-N
A549 NSCLC = system: A549 NSCLC
RXF 393 renal = system: RXF 393 renal
MALME-3M melanoma = system: MALME-3M melanoma
MDA-MB-231 breast = system: MDA-MB-231 breast
NCI-H522 lung = system: NCI-H522 lung
SNB-75 CNS = system: SNB-75 CNS

Measured: TGI

O=C1c2ccc3c4ccc5c6c(ccc(c7ccc(c2c37)C(=O)N1CCN1CCCCC1)c64)C(=O)N(CCN1CCCCC1)C5=O
not listed: MALME-3M melanoma | MDA-MB-231 breast | NCI-H522 lung | SNB-75 CNS
> 100 µM: all other assays above

CN1N(c2ccccc2)C(=O)C2=NC=C(C(=O)c3ccccc3)C(=N)C21C (centres undefined)
not listed: NCI/ADR-RES ovarian | KM12 colon | OVCAR-8 ovarian | SNB-75 CNS
> 100 µM: all other assays above

Cc1ccc(S(=O)(=O)N/N=C2/C3CCC(C3)C2c2ccccc2)cc1 (centres undefined)
not listed: HCC-2998 colon | SF-539 CNS | A498 renal | RXF 393 renal | MDA-MB-231 breast
> 100 µM: all other assays above
